# According to PubChem BioAssay AID2060610 (Molecular Pharmacology Branch, DTP, NCI, 2025):
# Tested on: 616215-338-R-J1-PDC complex spheroids, viability % test/control
# Test: Anticancer human tumor 616215-338-R-J1-PDC patient-derived colon adenocarcinoma cell line growth inhibition [CLK]
# Details: for IC50: curve of first compound; for viability, T/C: stronger effect = lower value
# In short: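 Multi-cell-type spheroids combined patient-derived tumor cells with HUVEC endothelial cells and human mesenchymal stem cells. Paired agents were dosed in half-log steps down from about clinical Cmax, or from 10 microM where Cmax was unknown.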
# [1] = second compound 0.0316 µM, first compound 0.0316 µM
# [2] = second compound 0.0316 µM, first compound 0.1 µM
# [3] = second compound 0.0316 µM, first compound 0.316 µM
# [4] = second compound 0.0316 µM, first compound 1 µM
# [5] = second compound 0.0316 µM, first compound 3.16 µM
# [6] = second compound 0.0316 µM, first compound 10 µM
# [7] = second compound 0.1 µM, first compound 0.0316 µM
# [8] = second compound 0.1 µM, first compound 0.1 µM
# [9] = second compound 0.1 µM, first compound 0.316 µM
# [10] = second compound 0.1 µM, first compound 1 µM
# [11] = second compound 0.1 µM, first compound 3.16 µM
# [12] = second compound 0.1 µM, first compound 10 µM
# [13] = second compound 0.316 µM, first compound 0.0316 µM
# [14] = second compound 0.316 µM, first compound 0.1 µM
# [15] = second compound 0.316 µM, first compound 0.316 µM
# [16] = second compound 0.316 µM, first compound 1 µM
# [17] = second compound 0.316 µM, first compound 3.16 µM
# [18] = second compound 0.316 µM, first compound 10 µM
# [19] = second compound 1 µM, first compound 0.0316 µM
# [20] = second compound 1 µM, first compound 0.1 µM
# [21] = second compound 1 µM, first compound 0.316 µM
# [22] = second compound 1 µM, first compound 1 µM
# [23] = second compound 1 µM, first compound 3.16 µM
# [24] = second compound 1 µM, first compound 10 µM
# [25] = second compound 3.16 µM, first compound 0.0316 µM
# [26] = second compound 3.16 µM, first compound 0.1 µM
# [27] = second compound 3.16 µM, first compound 0.316 µM
# [28] = second compound 3.16 µM, first compound 1 µM
# [29] = second compound 3.16 µM, first compound 3.16 µM
# [30] = second compound 3.16 µM, first compound 10 µM
# [31] = second compound 10 µM, first compound 0.0316 µM
# [32] = second compound 10 µM, first compound 0.1 µM
# [33] = second compound 10 µM, first compound 0.316 µM
# [34] = second compound 10 µM, first compound 1 µM
# [35] = second compound 10 µM, first compound 3.16 µM
# [36] = second compound 10 µM, first compound 10 µM
# 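Also: spheroids exposed to agents for 7 days.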
# 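For viability, T/C in this document: 100% = DMSO vehicle wells.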
structure (smiles),measurement,setting,value
C#Cc1c(F)ccc2cc(O)cc(-c3ncc4c(N5CC6CCC(C5)N6)nc(OCC56CCCN5CC(F)C6)nc4c3F)c12 (stereo unspecified) + CN1CCN(c2cc(C(=O)Nc3cc4cc(-c5cnn(C)c5)ccc4cn3)ccn2)CC1,IC50,second compound 0.0316 µM,> 10 µM
same,IC50,second compound 0.1 µM,> 10 µM
same,IC50,second compound 0.316 µM,< 0.0316 µM
same,IC50,second compound 1 µM,< 0.0316 µM
same,IC50,second compound 3.16 µM,< 0.0316 µM
same,IC50,second compound 10 µM,< 0.0316 µM
same,"viability, T/C",[1],93.7%
same,"viability, T/C",[2],91.2%
same,"viability, T/C",[3],109%
same,"viability, T/C",[4],102%
same,"viability, T/C",[5],106%
same,"viability, T/C",[6],99.1%
same,"viability, T/C",[7],101%
same,"viability, T/C",[8],103%
same,"viability, T/C",[9],94.7%
same,"viability, T/C",[10],101%
same,"viability, T/C",[11],102%
same,"viability, T/C",[12],74.7%
same,"viability, T/C",[13],36.2%
same,"viability, T/C",[14],38.8%
same,"viability, T/C",[15],30%
same,"viability, T/C",[16],33.3%
same,"viability, T/C",[17],24.7%
same,"viability, T/C",[18],18.8%
same,"viability, T/C",[19],0.17%
same,"viability, T/C",[20],0.82%
same,"viability, T/C",[21],0.2%
same,"viability, T/C",[22],0.18%
same,"viability, T/C",[23],0.17%
same,"viability, T/C",[24],0.71%
same,"viability, T/C",[25],0.13%
same,"viability, T/C",[26],2.81%
same,"viability, T/C",[27],0.12%
same,"viability, T/C",[28],0.12%
same,"viability, T/C",[29],0.13%
same,"viability, T/C",[30],3.3%
same,"viability, T/C",[31],0.18%
same,"viability, T/C",[32],1.06%
same,"viability, T/C",[33],0.16%
same,"viability, T/C",[34],0.18%
same,"viability, T/C",[35],0.18%
same,"viability, T/C",[36],2.17%
COc1cccc2c1C(=O)c1c(O)c3c(c(O)c1C2=O)CC(O)(C(=O)CO)CC3OC1CC(N)C(O)C(C)O1 (stereo unspecified) + CN1CCN(c2cc(C(=O)Nc3cc4cc(-c5cnn(C)c5)ccc4cn3)ccn2)CC1,IC50,second compound 0.0316 µM,0.211 µM
same,IC50,second compound 0.1 µM,0.142 µM
same,IC50,second compound 0.316 µM,< 0.0316 µM
same,IC50,second compound 1 µM,< 0.0316 µM
same,IC50,second compound 3.16 µM,< 0.0316 µM
same,IC50,second compound 10 µM,< 0.0316 µM
same,"viability, T/C",[1],82.5%
same,"viability, T/C",[2],42.5%
same,"viability, T/C",[3],51.5%
same,"viability, T/C",[4],41.8%
same,"viability, T/C",[5],0.43%
same,"viability, T/C",[6],0.14%
same,"viability, T/C",[7],71%
same,"viability, T/C",[8],44.8%
same,"viability, T/C",[9],42.5%
same,"viability, T/C",[10],37.9%
same,"viability, T/C",[11],0.52%
same,"viability, T/C",[12],0.13%
same,"viability, T/C",[13],27.6%
same,"viability, T/C",[14],32.9%
same,"viability, T/C",[15],21.8%
same,"viability, T/C",[16],2.19%
same,"viability, T/C",[17],0.13%
same,"viability, T/C",[18],0.13%
same,"viability, T/C",[19],0.14%
same,"viability, T/C",[20],0.17%
same,"viability, T/C",[21],0.16%
same,"viability, T/C",[22],0.1%
same,"viability, T/C",[23],0.09%
same,"viability, T/C",[24],0.11%
same,"viability, T/C",[25],0.09%
same,"viability, T/C",[26],0.12%
same,"viability, T/C",[27],0.11%
same,"viability, T/C",[28],0.09%
same,"viability, T/C",[29],0.12%
same,"viability, T/C",[30],0.71%
same,"viability, T/C",[31],0.1%
same,"viability, T/C",[32],0.12%
same,"viability, T/C",[33],0.46%
same,"viability, T/C",[34],0.13%
same,"viability, T/C",[35],0.16%
same,"viability, T/C",[36],0.17%
C=C(F)C(=O)N1CCN(c2nc(OCC3CCCN3C)nc3c2CCN(c2cccc4cccc(Cl)c24)C3)CC1CC#N (stereo unspecified) + CNC(=O)c1ccc(Nc2nc(OC3CCCC3)c3c(-c4ccc5nc(C)oc5c4)c[nH]c3n2)c(OC)c1,IC50,second compound 0.0316 µM,5.78 µM
same,IC50,second compound 0.1 µM,< 0.0316 µM
same,IC50,second compound 0.316 µM,< 0.0316 µM
same,IC50,second compound 1 µM,< 0.0316 µM
same,IC50,second compound 3.16 µM,< 0.0316 µM
same,IC50,second compound 10 µM,< 0.0316 µM
same,"viability, T/C",[1],95.2%
same,"viability, T/C",[2],96.9%
same,"viability, T/C",[3],90.9%
same,"viability, T/C",[4],104%
same,"viability, T/C",[5],106%
same,"viability, T/C",[6],5.6%
same,"viability, T/C",[7],46%
same,"viability, T/C",[8],38.4%
same,"viability, T/C",[9],47.9%
same,"viability, T/C",[10],46.2%
same,"viability, T/C",[11],44.9%
same,"viability, T/C",[12],1.3%
same,"viability, T/C",[13],48.4%
same,"viability, T/C",[14],45.2%
same,"viability, T/C",[15],46.6%
same,"viability, T/C",[16],40.4%
same,"viability, T/C",[17],42.1%
same,"viability, T/C",[18],1.18%
same,"viability, T/C",[19],49.8%
same,"viability, T/C",[20],50.5%
same,"viability, T/C",[21],47.5%
same,"viability, T/C",[22],42.1%
same,"viability, T/C",[23],30.7%
same,"viability, T/C",[24],0.72%
same,"viability, T/C",[25],42.7%
same,"viability, T/C",[26],49.1%
same,"viability, T/C",[27],41.2%
same,"viability, T/C",[28],31.5%
same,"viability, T/C",[29],20.8%
same,"viability, T/C",[30],0.22%
same,"viability, T/C",[31],45.3%
same,"viability, T/C",[32],43%
same,"viability, T/C",[33],42.8%
same,"viability, T/C",[34],33.2%
same,"viability, T/C",[35],16.4%
same,"viability, T/C",[36],0.29%
